Laboratory results as given in PubChem BioAssay (NCI).
Several values for one entry are separate records, joined by “and”; a condition that tells them apart may be missing. Identical values can stand only once.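 Exposure lasted 48 hours, with cells grown in 96-well plates and compounds tested at five concentrations. GI50 is the concentration that inhibits growth by half. At the TGI there is no net growth.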

Legend:
Assay in all cases: inhibition of tumour cell growth, NCI panel, 48 h
ACHN renal = tested on: ACHN renal
HL-60(TB) leukemia = tested on: HL-60(TB) leukemia
HT29 colon = tested on: HT29 colon
LOX IMVI melanoma = tested on: LOX IMVI melanoma
MOLT-4 leukemia = tested on: MOLT-4 leukemia
NCI-H522 lung = tested on: NCI-H522 lung
PC-3 prostate = tested on: PC-3 prostate
U251 CNS = tested on: U251 CNS

SMILES | GI50 (ACHN renal) | GI50 (HL-60(TB) leukemia) | TGI (HL-60(TB) leukemia) | GI50 (HT29 colon) | TGI (HT29 colon) [µM] | GI50 (LOX IMVI melanoma) | TGI (LOX IMVI melanoma) | GI50 (MOLT-4 leukemia) | TGI (MOLT-4 leukemia) | GI50 (NCI-H522 lung) | TGI (NCI-H522 lung) | GI50 (PC-3 prostate) | TGI (PC-3 prostate) | GI50 (U251 CNS) | TGI (ACHN renal) [µM] | TGI (U251 CNS)
COC(=O)c1ccc2c(C(=Nc3ccc(N(C)C(=O)CN4CCN(C)CC4)cc3)c3ccccc3)c(O)[nH]c2c1 | 1.58 µM and 2.51 µM | 9.41 µM and 9.59 µM | 32.3 µM and 32.1 µM | 1.22 µM | 3.9 | 1.24 µM and 1.28 µM | 3.09 µM and 2.75 µM | 2.21 µM and 2.74 µM | 22.1 µM and > 100 µM | 1.5 µM and 1.75 µM | 3.67 µM and 5.77 µM | 5.2 µM and 25.6 µM | 53.2 µM and > 100 µM | 1.44 µM and 1.77 µM |  | 
CN1CCN(c2ccc(Nc3ncc4cc5n(c4n3)C3(CCCCC3)CNC5=O)nc2)CC1 | 0.847 µM | 0.0651 µM | 3.04 µM | 0.397 µM | 19.2 | 0.589 µM | 10.4 µM | 0.279 µM | 3.58 µM | 9.01 µM | 31.5 µM | 0.627 µM | 28.9 µM | 1.32 µM | 12.6 | 28.2 µM
CCN1C(=O)N(CC)C2C1NN=c1s/c(=C\c3ccc(OC)cc3)c(=O)n12 (stereo not drawn) | 0.165 µM | 0.174 µM | 0.477 µM | 0.238 µM | > 82.4 | 0.233 µM | > 100 µM | 0.378 µM | > 100 µM | 0.105 µM |  | 0.14 µM | > 100 µM | 0.244 µM | > 100 | > 100 µM
Cc1cc(N)cc(C)c1-c1c(Br)cc(N)cc1Br | 10.6 µM |  |  | 2.82 µM | 12 | 6.14 µM | 20.7 µM |  |  | 2.19 µM | 7.88 µM | 4.17 µM | 69.1 µM | 4.54 µM | 98.4 | 17.9 µM
Cc1cc2c(cc1Cl)SC(C(=O)c1ccc(Cl)c(Cl)c1)NS2(=O)=O (stereo not drawn) | 29.8 µM | 39.8 µM | 80.6 µM | 36.1 µM | > 100 | 22.6 µM | 48.7 µM | 29.5 µM | 64.4 µM | 28.9 µM | 74.4 µM | 32.5 µM | > 100 µM | 34.4 µM | 85.6 | > 100 µM
COc1ccc(-c2nc3sccn3c2-c2ccnc(NCCCNS(=O)(=O)c3ccc(F)cc3)n2)cc1 | 1.99 µM | 2.64 µM | 9.22 µM | 2.16 µM | > 100 | 1.91 µM | 5.82 µM | 1.9 µM | 7.67 µM | 1.41 µM | 6.34 µM | 1.74 µM | 6.75 µM | 3.7 µM | 7.73 | > 100 µM
CS(=O)(=O)N1CCc2c(-c3cnc(N)nc3)nc(N3CCOCC3)nc21 | 0.735 µM and 0.677 µM | 0.415 µM | > 100 µM | 0.26 µM and 0.307 µM | > 77.5 | 0.579 µM and 0.406 µM | > 94.2 µM | 0.92 µM and 0.807 µM | > 100 µM | 0.642 µM and 2.1 µM | > 48.7 µM | 0.279 µM and 0.258 µM | > 5.95 µM and 11 µM | 1.7 µM and 1.27 µM | > 100 | > 10 µM and 23 µM
O=c1c2cc(O)c(O)cc2oc2cc(O)c(C3OC(CO)C(O)C(O)C3O)c(O)c12 (stereo not drawn) |  |  | > 100 µM |  | > 100 |  | > 100 µM |  | > 100 µM |  | > 100 µM |  | > 100 µM |  | > 100 | > 100 µM
CCCc1n(Cc2ccc3ccccc3n2)cc[n+]1Cc1ccc2ccccc2n1 | 33.4 µM | 0.34 µM | 1.69 µM | 1.61 µM | 11.4 | 2.43 µM | 10.9 µM | 2.89 µM | 16.5 µM | 0.438 µM | 5.07 µM | 1.85 µM | 14.7 µM | 1.51 µM | > 100 | 12.3 µM
O=C(CSc1ncc(-c2ccccc2)n1-c1ccccc1)Nc1ccc(-c2nc3ccccc3s2)cc1 | 14.5 µM | > 100 µM | > 100 µM |  |  | 5.31 µM | > 100 µM |  |  | 8.11 µM | > 100 µM | > 100 µM | > 100 µM | 2.42 µM | > 100 | 5.56 µM
CC(C)COC(c1ccc2c(c1)OCO2)C(C)Br (stereo not drawn) |  |  |  |  | 45.5 |  | 35.4 µM |  |  |  | 37.8 µM |  | > 100 µM |  | > 100 | 93.8 µM
O=C(c1ccco1)c1c(C(F)(F)F)n([O-])c2ccc(F)cc2[n+]1=O | 1.33 µM | 0.186 µM | 0.452 µM |  |  | 0.785 µM | 2.24 µM | 0.219 µM | 0.54 µM | 1.7 µM | 3.44 µM | 1.01 µM | 2.47 µM | 1.33 µM | 2.62 | 2.6 µM
Fc1ccc(-c2nn3c(COc4ccc(Cl)cc4Cl)nnc3s2)cc1Oc1ccccc1 | 14.1 µM |  |  | 15.9 µM | 34.8 | 14.6 µM | 29 µM | 7.08 µM | 27.8 µM | 27 µM | > 100 µM | 8.94 µM | 21.4 µM | 12.9 µM | 27.3 | 25.6 µM
COC(=O)C1(C)CCCC2(C)c3cc(OC)ccc3C(=O)C(Br)C12 (stereo not drawn) |  |  | 4.2 µM |  | > 10 |  | > 10 µM |  | 4.17 µM |  | 5.25 µM |  | > 10 µM |  |  | > 10 µM
COc1cc(Cn2c(SCC(=O)Nc3ccc(Cl)cc3)nc3ccccc3c2=O)cc(OC)c1OC | 3.15 µM | > 100 µM | > 100 µM |  |  | 13.5 µM | > 100 µM | > 100 µM | > 100 µM | 4.89 µM | 21.9 µM | 16.7 µM | > 100 µM | 3.14 µM | 11.8 | 11.1 µM
CC1(C)OC(=O)C(=Cc2ccc([N+](=O)[O-])s2)C(=O)O1 |  |  | 5.59 µM |  | 38.5 |  | 32.6 µM |  | 24.6 µM |  |  |  | 38.1 µM |  | 27.3 | 30.4 µM
O=C(O)c1cn(C2CC2)c2cc(N3CCN(Cc4ccc5ccccc5c4O)CC3)c(F)cc2c1=O |  | > 100 µM | > 100 µM | 4.35 µM | > 100 | 3.13 µM | > 100 µM |  |  |  |  |  |  | 4.87 µM |  | > 100 µM
Cc1c(O)c(Br)c(C)c(O)c1Br (tested in a mixture with another compound) |  |  | 3.22 µM |  | 4.78 |  | 3.44 µM |  | 3.09 µM |  |  |  | 4.23 µM |  | 3.05 | 24.4 µM
